Like-named read-outs stand apart in the source and are kept apart here.
What was measured:
[1] = biological target: T1, AQ STING (G230A-R293Q) (Homo sapiens, UniProt Q86WV6, G230A/H232R/R293Q); experiment: Differential scanning fluorimetry (DSF) with AQ STING; format: binding; settings: thermal shift vs apoprotein; 150 μM CDN; truncated human AQ STING 0.1 mg/ml
T1 construct: 8xHis (N, cleaved yes); SUMO (N, cleaved yes); made in house; host or cells: E. coli Rosetta-gami B (DE3)
Method in brief: (§1)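 […] STING proteins, alone or with CDNs, in triplicate, thermally denatured on a real-time PCR cycler. Denaturing temperatures taken from first-derivative curves; shift = mean Tm of STING–CDN complex minus mean Tm of apoprotein.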

[2] = system: peripheral blood mononuclear cells (PBMC); experiment: Peripheral blood mononuclear cell (PBMC) assay; format: cell-based; settings: PBMC, 1 h with compounds, washed, 15 hour incubation, average of one to four donors
Method in brief: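 PBMCs exposed to serially diluted compound for 1 h at 37° C, 5% CO2, then washed twice and cultured 15 h in compound-free medium. IFN-α, IFN-γ and TNF-α measured in collected medium by multiplex bead immunoassay. Values averaged over runs from one to four donors.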

[3] = biological target: T2, WT STING (Homo sapiens, UniProt Q86WV6, H232R); experiment: Digitonin assay using 293T wtSTING-FL reporter cells; format: cell-based; design: host or cells: 293T (ATCC CRL-3216), stably transfected, with 4xISRE firefly luciferase reporter; settings: 293T wtSTING-FL cells, ISRE firefly luciferase; compounds in Digitonin buffer 30 minutes, then 5 hours; 8-point curve
Target sequence in this assay (Q86WV6 whole entry H232R): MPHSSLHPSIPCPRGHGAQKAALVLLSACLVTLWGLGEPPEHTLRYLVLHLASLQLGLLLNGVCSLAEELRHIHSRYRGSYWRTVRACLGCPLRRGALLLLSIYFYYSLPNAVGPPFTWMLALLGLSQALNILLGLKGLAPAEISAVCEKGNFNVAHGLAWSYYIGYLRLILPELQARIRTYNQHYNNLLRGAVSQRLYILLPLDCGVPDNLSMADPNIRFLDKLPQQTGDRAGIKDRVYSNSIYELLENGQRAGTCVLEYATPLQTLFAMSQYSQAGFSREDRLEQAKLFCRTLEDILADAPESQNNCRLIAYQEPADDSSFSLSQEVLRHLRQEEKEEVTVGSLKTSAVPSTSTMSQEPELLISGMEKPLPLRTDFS

[4] = biological target: T2, WT STING; experiment: 293T WT STING standard reporter assay; format: cell-based; design: host or cells: 293T (ATCC CRL-3216), stably transfected, with 4xISRE firefly luciferase reporter; settings: 293T wtSTING-FL cells, ISRE firefly luciferase; no digitonin; 7 hours with compounds; 8-point curve
From the text: Two complementary oligonucleotides of the sequence […] […] […] […] […] The oligonucleotides were mixed in equal molar amounts, hybridized, and cleaved by restriction endonucleases HindIII (cat. #. R0104S, NEB, Ipswich, USA) and BglII (cat. #R0144S, NEB, Ipswich, USA). Ultimately, they were ligated into plasmid pGL4.27 (cat. #E6651, Promega, Madison, USA) linearized with the same enzymes. As result the sequence with four ISRE sites was placed upstream of the minimum promoter of firefly luciferase reporter gene.
After 5 minutes incubation at room temperature (RT), 250 μL of the mixture was added dropwise to the cells in one well. Cells were incubated 36 hours at 37° C. with 5% CO2, and then detached with 0.05% Trypsin and 0.22 g/L EDTA (both cat. #L0941, Biowest, Riverside, USA).
Transfected cells were seeded onto poly-D-lysine coated six well plates at density 50,000 cells per 1 cm^2 in DMEM medium with high glucose containing 10% heat inactivated FBS, 30 μg/mL blasticidin (cat. #ant-b1-05, InvivoGen, San Diego, USA), 0.06 mg/ml Penicillin G and 0.1 mg/ml Streptomycin Sulfate (both cat. #. L0018, Biowest, Riverside, USA). The medium was replenished every 3-4 days until visible colonies of cells resistant to blasticidin were formed.
Blasticidin resistant cells stably expressing WT STING were further transfected with […] plasmid following the same procedure as described above. […] Homogeneous culture of stably double transfected cells was prepared by limiting dilution of cells in 96 well plates and wells with cells were selected that originated from a single cell.
The medium was removed next day and three-fold serial dilutions of compounds in 100 μl medium were added to the cells. The plates with cells were incubated for 7 hours at 37° C. with 5% CO2. After 50 μl of the medium was removed, 30 μl of ONE-Glo™ Luciferase Assay System reagent (cat. #E6120, Promega, Madison, USA) was added to each well and luminescence was read on Synergy H1 (Biotek, Winooski, USA).
Target sequence in this assay (Q86WV6 whole entry H232R): as above

[5] = biological target: T2, WT STING; experiment: Differential scanning fluorimetry (DSF) with WT STING; format: binding; design: 8xHis (N, cleaved yes); SUMO (N, cleaved yes); made in house; host or cells: E. coli Rosetta-gami B (DE3); settings: thermal shift vs apoprotein; 150 μM CDN; truncated human WT STING 0.1 mg/ml
Method in brief: as §1
Target sequence in this assay (Q86WV6 140-343 H232R): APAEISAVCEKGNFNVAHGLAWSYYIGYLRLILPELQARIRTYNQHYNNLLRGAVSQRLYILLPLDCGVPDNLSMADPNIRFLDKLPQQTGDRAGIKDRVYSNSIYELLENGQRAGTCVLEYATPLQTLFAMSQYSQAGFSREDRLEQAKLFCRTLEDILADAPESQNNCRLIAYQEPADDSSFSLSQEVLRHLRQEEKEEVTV

[6] = interferon-alpha level, read-out: PBMC EC50 (μM) IFN-α
[7] = interferon-gamma level, read-out: PBMC EC50 (μM) IFN-γ
[8] = tumor necrosis factor-alpha level, read-out: PBMC EC50 (μM) TNF-α

T1 sequence (Q86WV6 140-343 G230A/H232R/R293Q): as the sequence (Q86WV6 140-343 H232R) above, with G91A, R154Q counted along it

Compound | ΔTm at 150 µM [1] [°C] | EC50 [2, 6] [µM] | EC50 [2, 7] [µM] | EC50 [2, 8] [µM] | EC50 [3] [µM] | EC50 [4] [µM] | ΔTm at 150 µM [5] [°C]
Nc1ncnc2c1ncn2[C@H]1CC2OP(=O)(O)OC[C@H]3O[C@@H](n4cnc5c(N)ncnc54)C(F)C3OP(=O)(O)OC[C@H]2C1 (stereo partly drawn) [Compound 119, (2R, 3R, 3aR, 7aR, 9R, 10aS, 14aR)-2,9-bis(6-amino-9H-purin-9-yl)-3-fluoro-5,12-dihydroxydecahydro-2H-cyclopeanta[d]furo[3,2-j][1,3,7,9]tetraoxa[2,8]diphosphacyclododecine 5,12-dioxide] | 16.6 | 265 | 169 | 146 | 0.05 | 11.7 | 5.7
Nc1ncnc2c1ncn2[C@@H]1C[C@@H]2COP(=O)(O)OC3C(F)[C@H](n4cnc5c(N)ncnc54)O[C@@H]3COP(=O)(O)OC2C1F (stereo partly drawn) [Compound 120, (2R,3R,3aR,7aR,9R,10S,10aR,14aR)-2,9-bis(6-amino-9H-purin-9-yl)-3,10-difluoro-5,12-dihydroxydecahydro-2H-cyclopenta[d]furo[3,2-j][1,3,7,9]tetraoxa[2,8]diphosphacyclododecine 5,12-dioxide] | 17 | 64 | 36.6 | 72.6 | 0.01 | 1.9 | 10.3
